Like-named read-outs stand apart in the source and are kept apart here.
What was measured:
rats = conditions: cited from earlier work; for LD50 in rats, fold higher than podophyllotoxin: relative to podophyllotoxin
microtubuli = conditions: relative to podophyllotoxin; cited from earlier work
malignant cells = assay: Cell death in malignant cells; format: cell-based
IGF-1R [1] = molecular target: T1, IGF-1R (Homo sapiens, UniProt P08069); assay: Effect on IGF-1R (method not given)
Target sequence in this assay (P08069 31-1367, species assumed): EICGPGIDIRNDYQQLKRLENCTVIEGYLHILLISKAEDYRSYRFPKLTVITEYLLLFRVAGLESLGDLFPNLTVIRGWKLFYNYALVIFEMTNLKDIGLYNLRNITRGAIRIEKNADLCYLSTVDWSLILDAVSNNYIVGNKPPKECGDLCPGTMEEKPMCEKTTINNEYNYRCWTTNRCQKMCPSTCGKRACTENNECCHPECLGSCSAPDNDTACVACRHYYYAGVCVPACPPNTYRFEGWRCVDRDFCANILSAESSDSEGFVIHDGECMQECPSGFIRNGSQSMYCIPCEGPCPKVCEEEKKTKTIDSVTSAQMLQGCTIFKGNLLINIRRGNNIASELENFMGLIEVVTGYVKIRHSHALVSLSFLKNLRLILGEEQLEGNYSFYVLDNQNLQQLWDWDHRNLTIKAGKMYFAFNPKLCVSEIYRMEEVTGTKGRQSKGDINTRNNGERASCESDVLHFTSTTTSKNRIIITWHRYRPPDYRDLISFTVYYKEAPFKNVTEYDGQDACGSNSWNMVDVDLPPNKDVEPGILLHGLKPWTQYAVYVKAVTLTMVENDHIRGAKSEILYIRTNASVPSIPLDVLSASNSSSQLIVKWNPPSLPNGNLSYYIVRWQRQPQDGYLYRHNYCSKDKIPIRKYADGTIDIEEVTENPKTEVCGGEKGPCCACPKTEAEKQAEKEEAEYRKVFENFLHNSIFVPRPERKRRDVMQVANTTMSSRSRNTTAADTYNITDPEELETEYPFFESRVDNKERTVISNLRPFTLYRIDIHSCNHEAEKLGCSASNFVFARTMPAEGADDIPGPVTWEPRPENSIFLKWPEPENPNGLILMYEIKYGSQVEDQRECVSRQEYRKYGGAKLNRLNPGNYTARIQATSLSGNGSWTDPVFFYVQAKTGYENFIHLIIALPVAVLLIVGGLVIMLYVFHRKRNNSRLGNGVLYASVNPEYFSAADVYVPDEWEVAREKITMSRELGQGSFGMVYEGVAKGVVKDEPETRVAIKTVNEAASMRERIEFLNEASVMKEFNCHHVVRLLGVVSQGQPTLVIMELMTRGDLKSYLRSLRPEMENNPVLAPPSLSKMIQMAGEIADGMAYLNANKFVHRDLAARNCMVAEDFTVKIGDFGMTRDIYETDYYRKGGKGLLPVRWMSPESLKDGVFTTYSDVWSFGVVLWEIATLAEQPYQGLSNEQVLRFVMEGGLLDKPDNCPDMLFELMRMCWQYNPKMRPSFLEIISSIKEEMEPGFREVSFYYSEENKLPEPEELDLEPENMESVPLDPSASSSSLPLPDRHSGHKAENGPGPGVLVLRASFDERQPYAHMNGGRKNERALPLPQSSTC

IGF-1R [2] = molecular target: T1, IGF-1R; assay: IGF-1R phosphorylation/autophosphorylation in intact FM55 melanoma cells (immunoprecipitation, Western blotting, OD); format: cell-based; design: The cells were then isolated and subjected to immuno-precipitation of the IGF-1R; endogenous in cells; host or cells: FM55 melanoma cells; conditions: for Level of IGF-1R phosphorylation in intact cells: OD, control cells = 100%
Method: The isolated cells were lyzed in 10 ml ice-cold PBSTDS containing protease inhibitors (Carlberg, M., et al., J Biol Chem 271:17453-17462, 1996). 50 μl protein A or G agarose was added in 1 ml sample and incubated for 15 min at 4° C. on an orbital shaker. After centrifugation for 10 min at 10,000 r/min at 4° C. the supernatant was saved. The protein content was determined by a dye-binding assay with a reagent purchased from Bio-Rad. Bovine serum albumin was used as a standard. 15 μl Protein G Plus agarose and 5 μl anti-IGF-1R were added. After a 3 h incubation at 4° C. on an orbital shaker the precipitate was collected by pulse centrifugation in a micro centrifuge at 14,000×g for 10 s. The supernatant was discarded and the pellet was washed 3 times with PBSTDS.
Protein samples were solved in a 2×-sample buffer containing Laemmli buffer and 0.5% […] and boiled for 5 min at 96° C. Samples were separated by SDS-PAGE with a 4% stacking gel and 7.5% separation gel. Molecular weight markers (Bio Rad, Sweden) were run simultaneously in all experiments.
Following SDS-PAGE the proteins were transferred overnight to nitro-cellulose membranes (Hybond, Amersham, UK) and then blocked for 1 h at room temperature in a solution of 4% skimmed milk powder and 0.02% Tween 20 in PBS, pH 7.5. Incubations with the primary antibodies were performed for 1 h at room temperature, followed by 3 washes with PBS with Tween and incubation with the second antibody for 1 h room temperature. After another 3 washes the membranes were incubated with Streptavidin-labelled horseradish peroxidase for 30 min and then detected using Amersham ECL system (Amersham, UK) The films were scanned by Fluor-S (BioRad).
Melanoma cells (line FM55) were seeded in 6-cm dishes, at a concentration of 10,000 cells/cm^2 in Minimal Essential Medium supplemented with 10% fetal calf serum (FCS). […] Treatment with 0 μM represents untreated controls. The cells were then isolated and subjected to immuno-precipitation of the IGF-1R. The immunoprecipitates, containing purified IGF-1R, were fractionated by gel electrophoresis. Phosphorylation of IGF-1R was detected by an anti-phosphotyrosine antibody using Western blotting. The obtained signals represent phosphorylated IGF-1R and the intensity of signals represents amounts of phosphorylated IGF-1R. Details of the methods used are described above. The intensities are quantified by a scanner, which measures the optical density (OD) of the signals. For the control cells the OD is set at 100%. The blank (OD 0%) represents the background. The results given in Table 1 below are mean values of 3 experiments.
FM 55 melanoma cells were cultured in the same way as described in Experiment 1. When reaching a density of 65,000 cells/cm^2 in the dishes, they were treated for 1 h with 0.05 μM podophyllotoxin, deoxypodophyllotoxin, acetylpodophyllotoxin, epipodophyllotoxin, 4′-demethyl-podophyllotoxin and podophyllotoxone. The cells were then harvested for assay and quantification of IGF-1R autophosphorylation as described above. The values shown in Table 2 represent means of 3 experiments.
Target sequence in this assay (P08069 31-1367): as the sequence (P08069 31-1367, species assumed) above

[3] = tested on: HL60/Nov acute myeloid leukemia cells (cytostatic-resistant); assay: Viability of leukemia cells, HL60/Nov; format: cell-based, human; conditions: read-out: IC50 for viability of leukemia cell lines
Method: (§1) The human chronic myeloid leukemia K562/S and K562/Vcr30 lines and the acute myeloid leukemia cell lines HL60/0 and HL60/Nov were obtained from ATCC. The K562/S and HL60/0 are wild type (non-resistant) cells, whereas K562/Vcr30 and HL60/Nov are cytostatic-resistant sublines. All leukemia cell lines were cultured in RPMI 1640 medium supplemented with 10% fetal bovine serum and with 2 mM glutamine, 1% benzyl-penicillin and streptomycin. The cells were grown in tissue culture flasks maintained at 95% air/5% CO2 atmosphere at 37° C. in a humidified incubator. For the experiments 25,000 cells were cultured in 60-mm plastic dishes or 96-well plastic plates. The experiments on leukemia cells were performed in collaboration with Associate professor Sigurd Vitols, Department of Pharmacology, Karolinska Hospital (Stockholm, Sweden).
(§2) Cell proliferation kit II (Roche Inc.) is based on calorimetric change of the yellow tetrazolium salt XTT in orange formazan dye by the respiratory chain of viable cells (Roehm, N W, et al., J Immunol Methods 142:257-265, 1991). Cells seeded at a concentration of 5000/well in 100 μl medium in a 96-well plate were treated with different drugs in the given concentration. After 24 or 48 h the cells were incubated, according to the manufacturer's protocol, with XTT labelling mixture. After 4 h the formazan dye is quantified using a scanning multiwell spectrophotometer with a 495-nm filter. The absorbance is directly correlated with number of viable cells. The standard absorbance curve was drawn by means of untreated cells seeded at a concentration of from 1000 to 10 000 cells/well with an increasing rate of 1000 cells/well. All standards and experiments were performed in triplicates.
(§3) The leukemia cell lines K562/S, K562/Vcr 30, HL60/0 and HL60/Nov were proven to express the IGF-1R. This was assayed by Western blotting analysis, as described in Methods and Experiment 1 and 2. The 4 leukemia cell lines were seeded in 96-well plates (medium volume in a well was 100 μl), in RPMI40 medium supplemented with fetal calf serum. After 24 h podophyllotoxin, deoxypodophyllotoxin and other derivatives were added at different concentrations for 72 h. Cell viability was then assayed (see above). IC50 values for each inhibitor and cell lines are shown below (Table 5). The results are based on 3 different experiments.

[4] = tested on: HL60 acute myeloid leukemia cells; assay: Viability of leukemia cells, HL60; format: cell-based, human; conditions: HL60, 72 h, read-out: IC50 for viability of leukemia cell lines
Method: as §1, §2, §3

FM55 melanoma cells = assay: Cell viability (XTT), FM55; format: cell-based, human
Method: as §2
(§4) 5 different types of cell lines were seeded in 96-well plates (medium volume in a well was 100 μl), at a concentration of 10,000 cells/cm^2 in Minimal Essential Medium supplemented with fetal calf serum. When the cells had reached a concentration of 65,000 cells/cm^2, they were treated with different doses of podophyllotoxin and deoxypodophyllotoxin for 48 h. Cell viability was then assayed (see above). IC50 values for each inhibitor and cell line, calculated as the concentration, resulting in a 50% decrease in cell survival, are shown below. The results are based on 4 different experiments.
FM55 melanoma cells were cultured in the same way as described in Experiment 3 and were treated with different doses of podophyllotoxin analogues as described in Experiment 3.

[5] = tested on: K562/S chronic myeloid leukemia cells; assay: Viability of leukemia cells, K562/S; format: cell-based, human; conditions: 72 h, read-out: IC50 for viability of leukemia cell lines
Method: as §1, §2, §3

Water solubility = format: physicochemical
SK-MEL-28 melanoma cells = assay: Cell viability (XTT), SK-MEL-28; format: cell-based, human; conditions: 48 h
Method: as §2
as §4, with “IC50 values for each inhibitor and cell line, calculated as the concentration, resulting in a 50% decrease in cell survival, are shown below. The results are based on 4 different experiments.” left out

[6] = tested on: MCF-7 breast cancer cells; assay: Cell viability (XTT), MCF-7; format: cell-based, human; conditions: 48 h
Method: as §2
as §4, with “IC50 values for each inhibitor and cell line, calculated as the concentration, resulting in a 50% decrease in cell survival, are shown below. The results are based on 4 different experiments.” left out

[7] = tested on: K562/Vcr30 chronic myeloid leukemia cells (cytostatic-resistant); assay: Viability of leukemia cells, K562/Vcr30; format: cell-based, human; conditions: K562/Vcr30, 72 h, read-out: IC50 for viability of leukemia cell lines
Method: as §1, §2, §3

IGF-1R beta-subunit = molecular target: T2, IGF-1R beta-subunit (Homo sapiens, UniProt P08069); conditions: melanoma cells, 15 microM; cited from earlier work
T2 construct: host or cells: melanoma cells

isolated IGF-1R kinase = isolated IGF-1R kinase (Homo sapiens, UniProt P08069); conditions: cited from earlier work
insulin receptor kinase = insulin receptor kinase (Homo sapiens, UniProt P06213); conditions: cited from earlier work
microtubules = conditions: cell free systems; cited from earlier work
[8] = FM55 cells, 0.05 μM, 1 h, podophyllotoxin = 1, mean of 3
[9] = FM55, Experiment 4 (Table 4), read-out: IC50 for viability of FM55 cells
[10] = FM55 cells, 1 μM, 1 h, mean of 3
[11] = FM55 cells, 15 μM, 1 h, mean of 3
[12] = FM55 cells, 60 μM, 1 h, mean of 3

Sequence of insulin receptor kinase (P06213 28-1382): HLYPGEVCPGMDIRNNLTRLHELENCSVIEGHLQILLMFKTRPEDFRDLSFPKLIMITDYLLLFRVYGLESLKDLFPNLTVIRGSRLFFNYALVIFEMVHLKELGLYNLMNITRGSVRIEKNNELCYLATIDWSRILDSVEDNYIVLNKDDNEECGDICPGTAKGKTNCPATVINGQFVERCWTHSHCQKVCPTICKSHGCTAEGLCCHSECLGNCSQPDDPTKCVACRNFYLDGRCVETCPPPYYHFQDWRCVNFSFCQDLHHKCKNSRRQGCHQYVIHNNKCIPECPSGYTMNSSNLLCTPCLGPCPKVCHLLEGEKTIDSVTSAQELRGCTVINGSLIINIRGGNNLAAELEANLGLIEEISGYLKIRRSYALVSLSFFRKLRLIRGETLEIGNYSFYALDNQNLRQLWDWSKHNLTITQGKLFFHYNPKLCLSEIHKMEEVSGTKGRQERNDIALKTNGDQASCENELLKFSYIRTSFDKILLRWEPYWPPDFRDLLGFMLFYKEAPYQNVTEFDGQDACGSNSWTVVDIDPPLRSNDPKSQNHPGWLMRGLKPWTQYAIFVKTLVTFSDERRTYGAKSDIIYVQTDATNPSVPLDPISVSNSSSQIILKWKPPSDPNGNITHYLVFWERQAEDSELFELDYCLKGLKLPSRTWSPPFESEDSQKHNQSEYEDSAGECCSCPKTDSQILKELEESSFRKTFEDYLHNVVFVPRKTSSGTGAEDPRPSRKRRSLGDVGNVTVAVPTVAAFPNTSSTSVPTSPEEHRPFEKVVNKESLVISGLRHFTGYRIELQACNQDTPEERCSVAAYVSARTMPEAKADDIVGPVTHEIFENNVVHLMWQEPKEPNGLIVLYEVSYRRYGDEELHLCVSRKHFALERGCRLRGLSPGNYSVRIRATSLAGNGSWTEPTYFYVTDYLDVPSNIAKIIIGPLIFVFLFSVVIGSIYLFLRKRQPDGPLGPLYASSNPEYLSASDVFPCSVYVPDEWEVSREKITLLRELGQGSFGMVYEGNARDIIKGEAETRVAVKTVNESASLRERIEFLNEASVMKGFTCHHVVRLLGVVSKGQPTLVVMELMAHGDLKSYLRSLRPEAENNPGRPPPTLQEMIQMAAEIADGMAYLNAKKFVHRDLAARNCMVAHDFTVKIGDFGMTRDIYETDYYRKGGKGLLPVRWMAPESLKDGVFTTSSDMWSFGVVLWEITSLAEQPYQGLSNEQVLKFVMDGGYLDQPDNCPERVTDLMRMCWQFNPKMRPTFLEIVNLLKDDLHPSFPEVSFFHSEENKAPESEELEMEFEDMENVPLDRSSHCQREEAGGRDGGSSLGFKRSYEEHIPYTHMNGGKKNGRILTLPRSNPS
Sequence of isolated IGF-1R kinase (P08069 31-1367): as the sequence (P08069 31-1367, species assumed) above
T2 sequence (P08069 31-1367): as the sequence (P08069 31-1367, species assumed) above

COc1cc([C@@H]2c3cc4c(cc3[C@H](O)[C@H]3COC(=O)[C@@H]23)OCO4)cc(OC)c1OC [picropodophyllin]
LD50 in rats, fold higher than podophyllotoxin (rats): more than 35 fold
affinity for microtubuli, fold lower than podophyllotoxin (microtubuli): 50 fold
cell death in malignant cells (in words) (malignant cells): equipotent to podophyllotoxin
effect on IGF-1R / inhibition of IGF-1R activity (in words) (IGF-1R [1]): equipotent to podophyllotoxin

COc1cc([C@@H]2c3cc4c(cc3C[C@H]3COC(=O)[C@@H]32)OCO4)cc(OC)c1OC [Deoxypodophyllotoxin, deoxypodophyllotoxin]
inhibition of IGF-1R phosphorylation (in words) (IGF-1R [2]; FM55 cells, 0.05 μM, 1 h): potent inhibitors
Inhibitory effect on IGF-1R autophosphorylation in intact cells in relation to podophyllotoxin, Relative potency (IGF-1R [2]; [8]): 0.8
LD50 in rats, fold higher than podophyllotoxin (rats): > 15 fold
IC50 ([3]; 72 h): 2 nM
IC50 [4]: 3 nM
IC50 (FM55 melanoma cells; [9]): 40 nM
IC50 (FM55 melanoma cells; FM55, melanoma, 48 h (Table 3), read-out: IC50 for cell viability): 40 nM
IC50 [5]: 3 nM
water solubility (Water solubility): about 0.01 mM
IC50 (SK-MEL-28 melanoma cells): 40 nM
IC50 [6]: 30 nM
IC50 [7]: 4 nM

CC/C(=C(\c1ccccc1)c1ccc(OCCN(C)C)cc1)c1ccccc1 [Tamoxifen, tamoxifen]
Level of IGF-1R phosphorylation in intact cells (IGF-1R [2]; [10]): 95%
Level of IGF-1R phosphorylation in intact cells (IGF-1R [2]; [11]): 20%
Level of IGF-1R phosphorylation in intact cells (IGF-1R [2]; [12]): 10%
tyrosine phosphorylation of the IGF-1R beta-subunit (IGF-1R beta-subunit): efficiently blocked

COc1cc([C@@H]2c3cc4c(cc3[C@@H](O)[C@H]3COC(=O)[C@H]23)OCO4)cc(OC)c1OC [Epipodophyllotoxin, epipodophyllotoxin]
Inhibitory effect on IGF-1R autophosphorylation in intact cells in relation to podophyllotoxin, Relative potency (IGF-1R [2]; [8]): 0.5
LD50 in rats (rats): > 200 mg/kg
IC50 ([3]; Homo sapiens, HL-60, 72 h): 90 nM
IC50 ([4]; Homo sapiens, HL-60): 127 nM
IC50 ([5]; Homo sapiens): 195 nM
IC50 ([7]; Homo sapiens): 450 nM

N#C/C(=C\c1ccc(O)c(O)c1)C(=O)c1ccc(O)c(O)c1 [tyrphostin AG 538]
IC50 (isolated IGF-1R kinase): 400 nM
effect on insulin receptor kinase (insulin receptor kinase): also blocked the insulin receptor kinase

COc1cc([C@@H]2c3cc4c(cc3[C@H](O)[C@H]3COC(=O)[C@H]23)OCO4)cc(OC)c1O [4′-demethylpodophyllotoxin]
Inhibitory effect on IGF-1R autophosphorylation in intact cells in relation to podophyllotoxin, Relative potency (IGF-1R [2]; [8]): 0.5
IC50 ([3]; 72 h): 18 nM
IC50 [4]: 20 nM
IC50 (FM55 melanoma cells; [9]): 40 nM
IC50 [5]: 22 nM
IC50 [7]: 50 nM

COc1cc([C@@H]2c3cc4c(cc3[C@H](OC(C)=O)[C@H]3COC(=O)[C@H]23)OCO4)cc(OC)c1OC [Acetylpodophyllotoxin, acetylpodophyllotoxin]
Inhibitory effect on IGF-1R autophosphorylation in intact cells in relation to podophyllotoxin, Relative potency (IGF-1R [2]): 1.3
inhibition of IGF-1R phosphorylation (in words) (IGF-1R [2]; FM55 cells, 0.05 μM, 1 h): potent inhibitors
LD50 in rats (rats): 185 mg/kg
IC50 ([3]; 72 h): 46 nM
IC50 [4]: 48 nM
IC50 (FM55 melanoma cells; [9]): 30 nM
IC50 [5]: 80 nM
IC50 [7]: 140 nM

COc1cc([C@@H]2c3cc4c(cc3[C@@H](O[C@@H]3O[C@@H]5CO[C@@H](C)O[C@H]5[C@H](O)[C@H]3O)[C@H]3COC(=O)[C@H]23)OCO4)cc(OC)c1O [Etoposide, etoposide]
effect on microtubules (microtubules): no effect on microtubules

COc1cc(C2c3cc4c(cc3C(OC3OC5COC(c6ccccc6)OC5C(O)C3O)C3COC(=O)C23)OCO4)cc(OC)c1OC [podophyllotoxin-4,6-O-benzylidene-β-D-glucopyranoside]
effect on IGF-1R / inhibition of IGF-1R activity (in words) (IGF-1R [1]): completely disappeared

COc1cc([C@@H]2c3cc4c(cc3C(=O)[C@H]3COC(=O)[C@H]23)OCO4)cc(OC)c1OC [Podophyllotoxone, podophyllotoxone]
Inhibitory effect on IGF-1R autophosphorylation in intact cells in relation to podophyllotoxin, Relative potency (IGF-1R [2]): 0.3
IC50 ([3]; 72 h): > 500 nM
IC50 [4]: > 500 nM
IC50 [5]: > 500 nM
IC50 [7]: > 500 nM

O=c1c(-c2ccc(O)cc2)coc2cc(O)cc(O)c12 [Genistein, genistein]
Level of IGF-1R phosphorylation in intact cells (IGF-1R [2]; [10]): 100%
Level of IGF-1R phosphorylation in intact cells (IGF-1R [2]; [11]): 96%
Level of IGF-1R phosphorylation in intact cells (IGF-1R [2]; [12]): 35%
effect on IGF-1R phosphorylation (in words) (IGF-1R [2]; FM55 cells, 1, 15, 60 μM, genistein statement at 60 μM): partial inhibitory effect
